Measured values published in patent US5512434A (priority 1992, dated 1996).
Values belong to the molecule of their own block, whether it stands above or below them.

What was measured:
[1] = target: T1, human phosphatase VHR, wild type, SEQ ID NO:2 (Homo sapiens, UniProt P51452); format: biochemical
T1 construct: fragment containing the entire VHR coding region; glutathione-S-transferase (GST), pGEX-KT (N, cleaved yes); made in house
Method: (§1) Production and purification of bacterially-expressed VHR. A 0.8 kB SalI-HinDIII fragment containing the entire VHR coding region was blunt-ended with DNA polymerase (Klenow fragment), and BamHI linkers were added. DNA was digested with BamHI, and inserted in-frame into the BamHI site of the pGEX-KT expression vector, described in Hakes et al., Anal. Biochem. 202:293-298 (1992), to produce pGEX-VHR. Plasmid pGEX-VHR was used to express VHR as a fusion protein with glutathione-S-transferase (GST). Expression and purification of GST-VHR was performed as described for a rat brain PTP. Guan et al. (Anal. Biochem. 1991). […] VHR protein, obtained by thrombin cleavage of the purified GST fusion protein, was used for phosphatase assays.
(§2) Phosphatase assays with purified VHR. Dephosphorylation of p-nitrophenylphosphate (pNPP) was performed as described previously. Tonks et al., J. Biol. Chem. 263:6731-6737 (1988).
(§3) Fischer et al. (1991); Hunter et al. (1989).

[2] = target: human phosphatase VHR as GST-VHR fusion protein (glutathione-S-transferase fusion, VHR SEQ ID NO:2) (Homo sapiens, UniProt P51452); settings: hydrolysis of pNPP, absorbance at 410 nm
Chain of human phosphatase VHR as GST-VHR fusion protein (glutathione-S-transferase fusion, VHR SEQ ID NO:2) (P51452 whole entry, the tested form may be a part): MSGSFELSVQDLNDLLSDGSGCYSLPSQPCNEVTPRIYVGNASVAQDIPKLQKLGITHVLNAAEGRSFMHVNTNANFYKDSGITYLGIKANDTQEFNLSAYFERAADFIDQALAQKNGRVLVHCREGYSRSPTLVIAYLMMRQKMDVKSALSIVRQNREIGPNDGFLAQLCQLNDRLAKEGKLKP
Method: as §1, §2, §3

[3] = target: human phosphatase VHR (clone 27 lysate, pCEV27) (Homo sapiens, UniProt P51452); settings: 3 mM sodium vanadate, 37 C, 30 minutes
Chain of human phosphatase VHR (clone 27 lysate, pCEV27) (P51452 whole entry): as the sequence (P51452 whole entry, the tested form may be a part) above
Method: Phosphatase assays with bacterial extracts. […] Cultures of E. coli strain Y1091 (50 ml), carrying either pCEV-bek, pCEV-lacZ (pCEV-lacZ vector without an insert), or pCEV27 were grown and induced with 1 mM IPTG as described. […] Cells were collected by centrifugation and lysed in 1 ml of buffer containing 50 mM HEPES, pH 7.4, 1% Triton X-100, and 1 mM phenylmethylsulfonyl fluoride. Lysates were sonicated twice for ten seconds each, clarified by centrifugation, and the supernatants were tested for phosphatase activity.
The reaction was stopped by boiling in sodium dodecyl sulfate polyacrylamide gel electrophoresis (SDS-PAGE) sample buffer, described by Laemmli, Nature 227:680-685 (1970), for three minutes. The Sample was divided into two equal aliquots, resolved by 6.5% SDS-PAGE, and transferred to Immobilon (Milipore).
Immunoblotting was performed with monoclonal anti-pTyr (Upstate Biotechnology, Inc.) or monoclonal anti-β-gal antibodies (Promega) as described previously.

[4] = target: highly purified PDGF receptor (baculovirus-expressed)

T1 sequence (P51452 whole entry, the tested form may be a part): as above

Molecule: C=C1[C@@H](O)[C@@H]2O[C@]3(CC[C@H](/C=C/[C@@H](C)[C@@H]4CC(C)=C[C@@]5(O[C@H](C[C@@](C)(O)C(=O)O)CC[C@H]5O)O4)O3)CC[C@H]2O[C@@H]1[C@@H](O)C[C@H](C)[C@H]1O[C@@]2(CCCCO2)CC[C@H]1C [Okadaic acid]
- inhibitory effect on the enzyme activity (pNPP hydrolysis) [1]: no inhibitory effect

- Km (pNPP) [2]: in the micromolar range
- Km (pNPP) after cleavage of the VHR from GST with thrombin ([1]; compared with GST-VHR fusion, data not shown): unchanged
Molecule: O=[N+]([O-])c1ccc(OP(=O)(O)O)cc1 [pNPP, p-nitrophenylphosphate]

Molecule: sodium vanadate
- inhibition of pNPP hydrolysis by the phosphatase [1]: completely inhibited
- inhibition of the reduction of pTyr content of beta-gal-bek by clone 27 lysate [3]: inhibited

- Km of dephosphorylation (anti-pTyr/[125I]-protein A immunoblot, PhosphorImager) [4]: < 100 mM
Molecule: VHR (enzyme)

Molecule: [F-].[Na+] [sodium fluoride]
- inhibitory effect on the enzyme activity (pNPP hydrolysis) [1]: no inhibitory effect
